In publication PMC11861015, “Discovery of novel naphthalene-based diarylamides as pan-Raf kinase inhibitors with promising anti-melanoma activity: rational design, synthesis, in vitro and in silico screening” (Archives of Pharmacal Research, 2025):

Legend:
Raf kinase enzyme = biological target: Raf kinase enzyme; set-up: method as in Buchstaller et al. [2011]; details: ref Buchstaller et al. [2011]; read-out: IC50 against the Raf kinase enzyme; cited from earlier work
melanoma cell line A375 [1] = assay: Cell cycle analysis; details: A375 cells treated at IC50
B-Raf^V600E = biological target: T1, B-Raf^V600E (Homo sapiens, UniProt P15056, V600E); assay: In vitro biochemical kinase assay (Kinase HotSpot, Reaction Biology), one-point and 10-dose; details: ATP 10 μM; for inhibition at 10 µM: 10 µM compound, duplicate, read-out: In vitro protein kinase inhibition values (%) B-Raf^V600E
T1 construct: purchased Reaction Biology Co. (Kinase HotSpot service)

TRKB = biological target: T2, TRKB (Homo sapiens, UniProt Q16620); assay: Kinase selectivity assay, one-point; assay type: biochemical; details: 10 µM compound, duplicate, ATP 10 μM
T2 construct: purchased Reaction Biology Co. (Kinase HotSpot service)
Procedure: (§1) The in vitro kinase inhibitory assays (both one-point and ten-point assays) were performed at Reaction Biology Co. (Malvern, PA, USA). Kinase HotSpot service was used for screening the tested derivatives. The experiment protocol is previously described in detail (Elkamhawy et al. [2016]).
(§2) No significant inhibition was observed over the other tested kinases.

ALK = biological target: T3, ALK (Homo sapiens, UniProt Q9UM73); assay: Kinase selectivity assay, one-point; assay type: biochemical; details: 10 µM compound, duplicate, ATP 10 μM
T3 construct: purchased Reaction Biology Co. (Kinase HotSpot service)
Procedure: as §1, §2

FGFR1 = biological target: T4, FGFR1 (Homo sapiens, UniProt P11362); assay: Kinase selectivity assay, one-point; assay type: biochemical; details: 10 µM compound, duplicate, ATP 10 μM
T4 construct: purchased Reaction Biology Co. (Kinase HotSpot service)
Procedure: as §1, §2

mTOR/FRAP1 = biological target: T5, mTOR/FRAP1 (Homo sapiens, UniProt P42345); assay: Kinase selectivity assay, one-point; assay type: biochemical; details: 10 µM compound, duplicate, ATP 10 μM
T5 construct: purchased Reaction Biology Co. (Kinase HotSpot service)
Procedure: as §1, §2

ERK2/MAPK1 = biological target: T6, ERK2/MAPK1 (Homo sapiens, UniProt P28482); assay: Kinase selectivity assay, one-point; assay type: biochemical; details: 10 µM compound, duplicate, ATP 10 μM
T6 construct: purchased Reaction Biology Co. (Kinase HotSpot service)
Procedure: as §1, §2

ROS/ROS1 = biological target: T7, ROS/ROS1 (Homo sapiens, UniProt P08922); assay: Kinase selectivity assay, one-point; assay type: biochemical; details: 10 µM compound, duplicate, ATP 10 μM
T7 construct: purchased Reaction Biology Co. (Kinase HotSpot service)
Procedure: as §1, §2

melanoma cell line A375 [2] = assay: Apoptosis analysis (PE-Annexin V / DAPI); details: dosage close to IC50, dot plot
Description: PE-conjugated Annexin V maintains its strong binding to phosphatidylserine (PS), serving as a sensitive marker for flow cytometric assessment of apoptotic cells. The staining with PE Annexin V precedes the loss of membrane integrity observed in the later phases of cell death, whether induced by apoptotic or necrotic processes. Therefore, PE Annexin V staining is commonly employed alongside a vital dye like propidium iodide (PI) or DAPI. This combination allows researchers to distinguish early apoptotic cells (DAPI negative, PE Annexin V positive) from viable cells with intact membranes, which exclude DAPI. In contrast, the membranes of dead or damaged cells become permeable to DAPI. […] The sequential movement of cells through these stages serves as an indicative pattern of apoptosis.
For a more appropriate investigation of cell death, the compound-treated cells and control A375 cells were stained with PE-Annexin V and DAPI. […] A kind of controlled cell death known as apoptosis may be identified with the use of Annexin V and the DAPI reagent. These two fluorophores are used in the dot plot and image data to identify early and late apoptotic cells.

[3] = tested on: human melanoma cell line (A375); assay: In vitro cytotoxic activity (MTT assay); assay type: cell-based; details: for IC50: Homo sapiens, A-375, A375 cells, read-out: IC50 values (μM) against A375
Procedure: Melanoma skin cancer cell line (A375) of American Type Culture Collection (ATCC) was obtained from Korean Cell Line Bank (KCLB). The A375 cells were cultured in Dulbecco’s modified eagle’s medium (DMEM) (GenDepot) supplemented with 1% penicillin–streptomycin and 10% fetal bovine serum (FBS). The cells were maintained at 37 °C in a 5% CO2 with a 95% humid atmosphere. MTT assay, analysis of the cell cycle distribution, apoptosis analysis, and statistical analysis were carried out following known standard protocols adopted by our team earlier (Son et al. [2023]). […]

B-Raf^WT = biological target: T8, B-Raf^WT (Homo sapiens, UniProt P15056); assay: In vitro biochemical kinase assay (Kinase HotSpot, Reaction Biology), one-point and 10-dose; details: ATP 10 μM; for inhibition at 10 µM: 10 µM compound, duplicate, read-out: In vitro protein kinase inhibition values (%) B-Raf^WT
T8 construct: purchased Reaction Biology Co. (Kinase HotSpot service)

c-Raf = c-Raf (Homo sapiens, UniProt P04049); assay: as above; details: ATP 10 μM; for inhibition at 10 µM: 10 µM compound, duplicate, read-out: In vitro protein kinase inhibition values (%) c-Raf
[4] = tested on: Raf kinase enzymes (B-Raf^WT, B-Raf^V600E, and c-Raf); assay: One-point kinase assay, summary across Raf kinases; assay type: biochemical; details: 10 μM compound, ATP 10 μM, span over B-Raf^WT
Procedure: as §1
To evaluate the new structural design of our compounds (9a–i), the biochemical activity was evaluated against Raf kinase enzymes (B-Raf^WT, B-Raf^V600E, and c-Raf) in one-point dose (10 μM) at duplicate mode using ATP concentration 10 μM. The results are presented in Table 2 and expressed in % inhibition.

[5] = 10-dose, threefold serial dilution from 20 μM

T8 sequence (P15056 whole entry): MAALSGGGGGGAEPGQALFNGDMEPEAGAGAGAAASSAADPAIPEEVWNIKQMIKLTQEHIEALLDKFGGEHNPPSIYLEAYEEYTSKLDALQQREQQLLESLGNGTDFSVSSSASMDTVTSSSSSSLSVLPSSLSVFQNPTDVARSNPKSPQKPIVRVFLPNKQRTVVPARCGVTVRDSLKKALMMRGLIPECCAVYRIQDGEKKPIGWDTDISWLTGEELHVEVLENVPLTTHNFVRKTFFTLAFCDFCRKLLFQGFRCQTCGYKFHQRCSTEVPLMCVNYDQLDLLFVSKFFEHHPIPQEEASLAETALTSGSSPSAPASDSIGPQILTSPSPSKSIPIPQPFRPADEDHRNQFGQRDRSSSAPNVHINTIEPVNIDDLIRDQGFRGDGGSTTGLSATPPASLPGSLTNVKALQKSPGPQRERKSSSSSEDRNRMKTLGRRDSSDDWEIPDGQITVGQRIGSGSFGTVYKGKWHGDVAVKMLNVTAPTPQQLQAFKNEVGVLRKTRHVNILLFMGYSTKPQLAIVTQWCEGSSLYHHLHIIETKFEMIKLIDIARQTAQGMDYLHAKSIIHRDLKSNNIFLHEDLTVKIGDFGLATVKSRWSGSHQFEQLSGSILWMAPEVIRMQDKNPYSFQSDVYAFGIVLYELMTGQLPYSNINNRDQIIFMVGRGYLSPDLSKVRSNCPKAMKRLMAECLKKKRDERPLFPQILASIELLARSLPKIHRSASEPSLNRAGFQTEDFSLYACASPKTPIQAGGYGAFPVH
T1 sequence (P15056 whole entry V600E): as the sequence (P15056 whole entry) above, with V600E counted along it
c-Raf, sequence (P04049 whole entry): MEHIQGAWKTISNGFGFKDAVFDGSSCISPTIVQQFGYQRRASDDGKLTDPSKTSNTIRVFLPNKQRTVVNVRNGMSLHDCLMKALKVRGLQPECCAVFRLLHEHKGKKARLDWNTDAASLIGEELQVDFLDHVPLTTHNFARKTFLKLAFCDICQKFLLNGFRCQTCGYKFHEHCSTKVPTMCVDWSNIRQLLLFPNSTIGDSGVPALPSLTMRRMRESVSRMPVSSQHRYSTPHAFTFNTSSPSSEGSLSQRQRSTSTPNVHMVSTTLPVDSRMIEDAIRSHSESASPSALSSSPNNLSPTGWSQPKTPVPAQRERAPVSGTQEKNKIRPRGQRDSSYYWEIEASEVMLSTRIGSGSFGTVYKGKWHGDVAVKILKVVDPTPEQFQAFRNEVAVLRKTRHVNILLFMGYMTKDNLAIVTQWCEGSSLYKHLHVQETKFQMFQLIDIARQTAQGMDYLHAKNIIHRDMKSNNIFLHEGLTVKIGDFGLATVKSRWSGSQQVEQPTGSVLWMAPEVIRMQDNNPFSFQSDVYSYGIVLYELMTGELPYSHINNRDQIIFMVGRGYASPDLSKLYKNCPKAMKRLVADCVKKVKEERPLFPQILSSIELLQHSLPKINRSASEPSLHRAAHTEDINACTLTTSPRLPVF
T3 sequence (Q9UM73 19-1620): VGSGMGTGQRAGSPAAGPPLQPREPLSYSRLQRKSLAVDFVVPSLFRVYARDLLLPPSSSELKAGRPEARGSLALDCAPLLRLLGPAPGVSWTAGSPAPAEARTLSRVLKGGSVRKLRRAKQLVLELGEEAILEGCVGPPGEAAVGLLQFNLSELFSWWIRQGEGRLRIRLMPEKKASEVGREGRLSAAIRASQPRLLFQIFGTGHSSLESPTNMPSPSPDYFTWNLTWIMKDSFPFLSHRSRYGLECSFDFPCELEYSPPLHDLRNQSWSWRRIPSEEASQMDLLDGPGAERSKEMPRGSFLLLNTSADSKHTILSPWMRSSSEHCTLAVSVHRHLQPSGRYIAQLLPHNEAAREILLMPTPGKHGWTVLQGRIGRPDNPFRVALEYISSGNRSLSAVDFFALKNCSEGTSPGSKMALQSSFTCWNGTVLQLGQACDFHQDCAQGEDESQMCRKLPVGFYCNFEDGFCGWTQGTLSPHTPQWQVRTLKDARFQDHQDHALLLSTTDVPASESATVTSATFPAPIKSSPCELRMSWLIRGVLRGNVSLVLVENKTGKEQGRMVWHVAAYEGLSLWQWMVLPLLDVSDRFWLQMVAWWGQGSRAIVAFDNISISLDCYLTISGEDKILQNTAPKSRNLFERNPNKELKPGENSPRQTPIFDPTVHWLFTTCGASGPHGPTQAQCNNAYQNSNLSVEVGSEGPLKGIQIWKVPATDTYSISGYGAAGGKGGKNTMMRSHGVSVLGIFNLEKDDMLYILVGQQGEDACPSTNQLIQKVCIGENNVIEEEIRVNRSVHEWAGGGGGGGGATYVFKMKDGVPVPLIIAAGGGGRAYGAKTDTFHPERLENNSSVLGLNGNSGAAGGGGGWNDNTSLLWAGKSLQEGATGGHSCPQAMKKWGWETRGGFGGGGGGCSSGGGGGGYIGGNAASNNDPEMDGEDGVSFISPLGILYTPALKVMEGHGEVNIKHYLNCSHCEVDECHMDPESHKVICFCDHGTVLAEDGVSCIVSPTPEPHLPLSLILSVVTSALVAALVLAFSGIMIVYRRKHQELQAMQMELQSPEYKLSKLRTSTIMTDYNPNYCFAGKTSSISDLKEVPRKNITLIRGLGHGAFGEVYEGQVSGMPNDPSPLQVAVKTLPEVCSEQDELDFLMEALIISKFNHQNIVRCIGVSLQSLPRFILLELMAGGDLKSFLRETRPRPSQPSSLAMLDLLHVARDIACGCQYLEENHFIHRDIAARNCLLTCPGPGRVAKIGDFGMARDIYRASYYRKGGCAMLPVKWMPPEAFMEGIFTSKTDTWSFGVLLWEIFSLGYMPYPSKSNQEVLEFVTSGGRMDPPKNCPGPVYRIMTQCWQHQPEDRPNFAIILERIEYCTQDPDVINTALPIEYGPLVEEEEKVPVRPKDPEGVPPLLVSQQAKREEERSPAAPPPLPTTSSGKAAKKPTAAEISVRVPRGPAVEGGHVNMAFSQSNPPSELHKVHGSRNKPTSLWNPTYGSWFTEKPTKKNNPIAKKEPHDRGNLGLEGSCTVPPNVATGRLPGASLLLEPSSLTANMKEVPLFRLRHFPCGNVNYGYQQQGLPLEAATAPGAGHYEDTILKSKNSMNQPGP
T6 sequence (P28482 whole entry): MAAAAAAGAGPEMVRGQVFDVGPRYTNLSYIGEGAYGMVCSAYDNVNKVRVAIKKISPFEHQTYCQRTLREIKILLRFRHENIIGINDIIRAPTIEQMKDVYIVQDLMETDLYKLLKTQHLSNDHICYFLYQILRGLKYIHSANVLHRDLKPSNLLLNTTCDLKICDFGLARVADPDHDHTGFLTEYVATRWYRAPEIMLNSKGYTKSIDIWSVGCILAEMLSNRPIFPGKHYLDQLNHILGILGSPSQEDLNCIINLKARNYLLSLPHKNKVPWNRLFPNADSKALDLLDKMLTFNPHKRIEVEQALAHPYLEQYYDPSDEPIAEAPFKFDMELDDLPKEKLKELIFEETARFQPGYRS
T2 sequence (Q16620 32-822): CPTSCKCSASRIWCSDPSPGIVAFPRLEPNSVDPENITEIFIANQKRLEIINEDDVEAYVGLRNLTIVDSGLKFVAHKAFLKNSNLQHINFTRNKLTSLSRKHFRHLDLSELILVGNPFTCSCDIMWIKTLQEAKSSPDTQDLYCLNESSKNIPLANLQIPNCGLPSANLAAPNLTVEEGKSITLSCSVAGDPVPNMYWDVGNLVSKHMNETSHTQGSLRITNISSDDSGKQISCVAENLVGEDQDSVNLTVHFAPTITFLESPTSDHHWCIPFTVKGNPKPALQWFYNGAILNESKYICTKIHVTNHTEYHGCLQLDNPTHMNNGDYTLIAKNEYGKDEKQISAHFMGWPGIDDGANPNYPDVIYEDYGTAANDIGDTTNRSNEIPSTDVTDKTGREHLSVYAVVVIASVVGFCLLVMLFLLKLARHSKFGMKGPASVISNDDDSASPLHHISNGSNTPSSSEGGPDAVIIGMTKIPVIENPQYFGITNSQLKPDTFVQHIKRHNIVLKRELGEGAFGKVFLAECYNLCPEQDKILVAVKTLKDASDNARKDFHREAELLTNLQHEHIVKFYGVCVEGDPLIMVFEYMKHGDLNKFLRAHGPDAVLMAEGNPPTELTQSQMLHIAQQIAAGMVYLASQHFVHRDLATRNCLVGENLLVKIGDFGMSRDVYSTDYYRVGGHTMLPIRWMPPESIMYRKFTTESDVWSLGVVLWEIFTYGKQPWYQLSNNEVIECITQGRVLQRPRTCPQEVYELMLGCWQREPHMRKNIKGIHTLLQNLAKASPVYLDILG
T4 sequence (P11362 22-822): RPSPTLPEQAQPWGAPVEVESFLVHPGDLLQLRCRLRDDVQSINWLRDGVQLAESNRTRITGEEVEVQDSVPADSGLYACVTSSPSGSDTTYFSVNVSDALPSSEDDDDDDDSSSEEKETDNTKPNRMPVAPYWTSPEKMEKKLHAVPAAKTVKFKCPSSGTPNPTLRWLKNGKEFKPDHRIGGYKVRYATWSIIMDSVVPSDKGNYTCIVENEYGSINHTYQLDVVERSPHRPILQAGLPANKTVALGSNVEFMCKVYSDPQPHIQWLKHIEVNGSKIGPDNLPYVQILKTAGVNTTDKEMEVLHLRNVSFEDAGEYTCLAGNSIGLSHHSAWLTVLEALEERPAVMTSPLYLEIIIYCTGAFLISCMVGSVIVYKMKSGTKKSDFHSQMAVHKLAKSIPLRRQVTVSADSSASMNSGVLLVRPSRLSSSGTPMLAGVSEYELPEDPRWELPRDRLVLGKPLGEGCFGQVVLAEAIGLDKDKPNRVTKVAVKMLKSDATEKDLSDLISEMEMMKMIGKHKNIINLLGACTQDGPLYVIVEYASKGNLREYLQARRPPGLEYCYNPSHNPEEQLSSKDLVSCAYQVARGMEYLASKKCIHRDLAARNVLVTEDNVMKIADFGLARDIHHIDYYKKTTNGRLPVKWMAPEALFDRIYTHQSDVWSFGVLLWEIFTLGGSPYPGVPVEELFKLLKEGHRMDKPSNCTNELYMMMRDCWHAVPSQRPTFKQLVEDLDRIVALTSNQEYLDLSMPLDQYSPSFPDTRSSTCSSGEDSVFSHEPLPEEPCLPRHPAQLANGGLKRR

Row | inhibition at 10 µM (B-Raf^V600E) | inhibition at 10 µM (B-Raf^WT) | inhibition at 10 µM (c-Raf) | SMILES | IC50 [3] | further results
1 | – | – | – | CNC(=O)c1cc2ccc(CCNC(=O)Nc3cc(C(F)(F)F)c(Cl)cc3OC)cc2cn1 [Compound 4] | – | IC50 (Raf kinase enzyme): 80 nM
2 | 100% | 99.4% | 99.8% | CNC(=O)c1cc(Oc2ccc3c(C(=O)Nc4cccc(OC(F)F)c4)cccc3c2)ccn1 [Compound 9a, 4-((5-((3-(Difluoromethoxy)phenyl)carbamoyl)naphthalen-2-yl)oxy)-N-methylpicolinamide] | 0.12 ± 0.013 µM | G0/G1 phase Percent (melanoma cell line A375 [1]): 18.92%; G2/M phase Percent (melanoma cell line A375 [1]): 6.45%; S phase Percent (melanoma cell line A375 [1]): 71.83%; IC50 (B-Raf^V600E; [5]): 18 nM; inhibition at 10 µM (TRKB): 17.3%; inhibition at 10 µM (ALK): 8.23%; inhibition at 10 µM (FGFR1): 86.2%; inhibition at 10 µM (mTOR/FRAP1): 0%; inhibition at 10 µM (ERK2/MAPK1): 0%; inhibition at 10 µM (ROS/ROS1): 0%; N quadrant cells (melanoma cell line A375 [2]): 6.69%; early apoptosis (E.A) cells (melanoma cell line A375 [2]): 9.11%; late apoptosis (L.A) cells (melanoma cell line A375 [2]): 3.54%; live (L) cells (melanoma cell line A375 [2]): 80.66%; IC50 (B-Raf^WT; [5]): 49.7 nM; IC50 (c-Raf; [5]): 2.86 nM
3 | 98.4% | 98.4% | 99.7% | CNC(=O)c1cc(Oc2ccc3c(C(=O)Nc4ccc(C(C)C)cc4)cccc3c2)ccn1 [Compound 9b, 4-((5-((4-Isopropylphenyl)carbamoyl)naphthalen-2-yl)oxy)-N-methylpicolinamide] | 0.17 ± 0.012 µM | –
4 | 88.6% | 92.7% | 98.9% | CNC(=O)c1cc(Oc2ccc3c(C(=O)Nc4ccc(I)cc4)cccc3c2)ccn1 [Compound 9c, 4-((5-((4-Iodophenyl)carbamoyl)naphthalen-2-yl)oxy)-N-methylpicolinamide] | 0.67 ± 0.017 µM | –
5 | 98.2% | 97.4% | 99.6% | CNC(=O)c1cc(Oc2ccc3c(C(=O)Nc4ccc(OC)c(F)c4)cccc3c2)ccn1 [Compound 9d, 4-((5-((3-Fluoro-4-methoxyphenyl)carbamoyl)naphthalen-2-yl)oxy)-N-methylpicolinamide] | 0.54 ± 0.019 µM | –
6 | 24.9% | 42.1% | 76.3% | CNC(=O)c1cc(Oc2ccc3c(C(=O)Nc4ccc(N5CCOCC5)c(F)c4)cccc3c2)ccn1 [Compound 9e, 4-((5-((3-Fluoro-4-morpholinophenyl)carbamoyl)naphthalen-2-yl)oxy)-N-methylpicolinamide] | 4.46 ± 0.024 µM | IC50 values (μM) against A375 ([3]; A375 cells): weak cytotoxic activity; % inhibition across the tested Raf kinases [4]: 24.93–76.30%
7 | 75.8% | 74.7% | 96.5% | CNC(=O)c1cc(Oc2ccc3c(C(=O)Nc4ccc(F)cc4)cccc3c2)ccn1 [Compound 9f, 4-((5-((4-Fluorophenyl)carbamoyl)naphthalen-2-yl)oxy)-N-methylpicolinamide] | 0.44 ± 0.008 µM | –
8 | 100% | 99.3% | 99.8% | CNC(=O)c1cc(Oc2ccc3c(C(=O)Nc4ccc(C)c(C)c4)cccc3c2)ccn1 [Compound 9g, 4-((5-((3,4-Dimethylphenyl)carbamoyl)naphthalen-2-yl)oxy)-N-methylpicolinamide] | 1.42 ± 0.013 µM | –
9 | 100% | 99.6% | 99.8% | CNC(=O)c1cc(Oc2ccc3c(C(=O)Nc4cc(C)cc(Br)c4)cccc3c2)ccn1 [Compound 9h, 4-((5-((3-Bromo-5-methylphenyl)carbamoyl)naphthalen-2-yl)oxy)-N-methylpicolinamide] | 1.67 ± 0.032 µM | –
10 | 100% | 99.7% | 99.6% | CNC(=O)c1cc(Oc2ccc3c(C(=O)Nc4ccc(OC)c(Cl)c4)cccc3c2)ccn1 [Compound 9i, 4-((5-((3-Chloro-4-methoxyphenyl)carbamoyl)naphthalen-2-yl)oxy)-N-methylpicolinamide] | 1.75 ± 0.021 µM | –
11 | – | – | – | CNC(=O)c1cc(Oc2ccc(NC(=O)Nc3ccc(Cl)c(C(F)(F)F)c3)cc2)ccn1 [Sorafenib] | 0.92 ± 0.018 µM | G0/G1 phase Percent (melanoma cell line A375 [1]): 34.08%; G2/M phase Percent (melanoma cell line A375 [1]): 13.41%; S phase Percent (melanoma cell line A375 [1]): 49.72%; G0/G1 phase Percent (melanoma cell line A375 [1]; listed as sorafenib): 34.08%; G2/M phase Percent (melanoma cell line A375 [1]; listed as sorafenib): 13.41%; S phase Percent (melanoma cell line A375 [1]; listed as sorafenib): 49.72%; N quadrant cells (melanoma cell line A375 [2]): 12.49%; early apoptosis (E.A) cells (melanoma cell line A375 [2]): 4.03%; late apoptosis (L.A) cells (melanoma cell line A375 [2]): 4.34%; live (L) cells (melanoma cell line A375 [2]): 79.14%
